This note sets out measurements from PubChem BioAssay AID256 (DTP/NCI, 2004).

This assay has as its system CD2F1 mice, L1210 leukemia ip, survival T/C. The assay can be described thus: NCI In Vivo Anticancer Drug Screen. Data for tumor model L1210 Leukemia (intraperitoneal) in CD2F1 (CDF1) mice. The note with it: higher = longer survival. A digest of the protocol:
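Transplantable tumor in mice; compound-treated vs vehicle-treated groups. Read-out = treated/control ratio of the measured endpoint.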

Setting [1] is: endpoint: mean survival time, dose: 100.0 mg/kg/injection, schedule: Q04DX003 (ip), vehicle: saline with Tween-80.
The mark [2] stands for this setting: endpoint: mean survival time, dose: 200.0 mg/kg/injection, schedule: Q04DX003 (ip), vehicle: saline with Tween-80.
[3] abbreviates: endpoint: mean survival time, dose: 400.0 mg/kg/injection, schedule: Q04DX003 (ip), vehicle: saline with Tween-80.
The mark [4] stands for this setting: endpoint: mean survival time, dose: 100.0 mg/kg/injection, schedule: Q04DX002 (ip), vehicle: saline with Tween-80.
Where [5] appears, read: endpoint: mean survival time, dose: 200.0 mg/kg/injection, schedule: Q04DX002 (ip), vehicle: saline with Tween-80.
Where [6] appears, read: endpoint: mean survival time, dose: 400.0 mg/kg/injection, schedule: Q04DX002 (ip), vehicle: saline with Tween-80.
Where [7] appears, read: endpoint: mean survival time, dose: 100.0 mg/kg/injection, schedule: Q01DX001 (ip), vehicle: saline with Tween-80.
[8] abbreviates: endpoint: mean survival time, dose: 200.0 mg/kg/injection, schedule: Q01DX001 (ip), vehicle: saline with Tween-80.
Where [9] appears, read: endpoint: mean survival time, dose: 400.0 mg/kg/injection, schedule: Q01DX001 (ip), vehicle: saline with Tween-80.
[10] abbreviates: endpoint: mean survival time, dose: 100.0 mg/kg/injection, schedule: Q01DX009 (ip), vehicle: saline with Tween-80.
Where [11] appears, read: endpoint: mean survival time, dose: 200.0 mg/kg/injection, schedule: Q01DX009 (ip), vehicle: saline with Tween-80.

Toxic doses and inconclusive results are not listed.

Consider `CC(=O)CC(=O)C(F)(F)F.CC(=O)CC(=O)C(F)(F)F.[Ni]`, for which the T/C is 100 % of control (endpoint: median survival time, dose: 25.0 mg/kg/injection, schedule: Q04DX002 (ip), vehicle: saline with Tween-80) and 122 % of control (endpoint: median survival time, dose: 50.0 mg/kg/injection, schedule: Q04DX002 (ip), vehicle: saline with Tween-80).

Turning to `CCOC(=O)C(CNc1ccccc1)C(=O)OCC`, the T/C runs as follows: under setting [1], 101 % of control; under setting [2], 104 % of control; under setting [3], 104 % of control.

On to `CCCCCCCCCSCCS`, for which the T/C is, setting by setting: under setting [4], 96 % of control; under setting [5], 89 % of control; under setting [6], 100 % of control.

Take `c1ccc(C[As+](c2ccccc2)(c2ccccc2)c2ccccc2)cc1`: for the setting “endpoint: mean survival time, dose: 25.0 mg/kg/injection, schedule: Q04DX002 (ip), vehicle: saline with Tween-80”, the T/C was 96 % of control.

On to `CCCC(C)N` (stereo not given), for which the T/C (endpoint: mean survival time, dose: 100.0 mg/kg/injection, schedule: Q01DX001 (ip), vehicle: saline) is 98 % of control; the T/C (endpoint: mean survival time, dose: 200.0 mg/kg/injection, schedule: Q01DX001 (ip), vehicle: saline) is 98 % of control; the T/C (endpoint: mean survival time, dose: 400.0 mg/kg/injection, schedule: Q01DX001 (ip), vehicle: saline) is 94 % of control.

For `O=C(C(Oc1ccc(Cl)cc1)Oc1ccc(Cl)cc1)N(O)c1ccccc1OCc1ccccc1`, the T/C is, setting by setting: under setting [1], 102 % of control; under setting [2], 96 % of control; under setting [3], 94 % of control.

As to `Cc1c(-c2ccc(-c3ccccc3F)cc2)nc2ccc(F)cc2c1C(=O)O`, the T/C reads like this: (endpoint: median survival time, dose: 5.2 mg/kg/injection, schedule: Q01DX009 (ip), vehicle: water) 153 % of control; (endpoint: median survival time, dose: 6.25 mg/kg/injection, schedule: Q01DX009 (ip), vehicle: water) 165 % of control; (endpoint: median survival time, dose: 8.6 mg/kg/injection, schedule: Q01DX009 (ip), vehicle: water) 166 % of control; (endpoint: median survival time, dose: 12.5 mg/kg/injection, schedule: Q01DX009 (ip), vehicle: water) 168 % of control; (endpoint: median survival time, dose: 14.4 mg/kg/injection, schedule: Q01DX009 (ip), vehicle: water) 171 % of control; (endpoint: median survival time, dose: 24.0 mg/kg/injection, schedule: Q01DX009 (ip), vehicle: water) 172 % of control. The T/C reads like this: (endpoint: median survival time, dose: 25.0 mg/kg/injection, schedule: Q01DX009 (ip), vehicle: water) 179 % of control; (endpoint: median survival time, dose: 40.0 mg/kg/injection, schedule: Q01DX009 (ip), vehicle: water) 175 % of control; (endpoint: median survival time, dose: 50.0 mg/kg/injection, schedule: Q01DX009 (ip), vehicle: water) 108 % of control; (endpoint: median survival time, dose: 66.7 mg/kg/injection, schedule: Q01DX009 (ip), vehicle: water) 116 % of control; (endpoint: median survival time, dose: 100.0 mg/kg/injection, schedule: Q01DX009 (ip), vehicle: water) 93 % of control.

Turning to `CNC(=O)C1CCC(CC2CCCCC2)CC1` (stereo not given), the T/C runs as follows: under setting [7], 93 % of control; under setting [8], 93 % of control; under setting [9], 102 % of control.

Turning to `CC(=O)OC1CCC2(C)C(CCC3C2CCC2(C)C(C(C)=O)CCC32)C1` (stereo not given), the T/C by setting is: (endpoint: mean survival time, dose: 100.0 mg/kg/injection, schedule: Q04DX003 (sc), vehicle: steriod suspending solution) 103 % of control; (endpoint: mean survival time, dose: 200.0 mg/kg/injection, schedule: Q04DX003 (sc), vehicle: steriod suspending solution) 97 % of control; (endpoint: mean survival time, dose: 400.0 mg/kg/injection, schedule: Q04DX003 (sc), vehicle: steriod suspending solution) 107 % of control.

For the compound `CC(Cc1ccccc1)NC(C)Cc1ccccc1` (stereo not given), the T/C runs as follows: under setting [1], 98 % of control; under setting [2], 102 % of control.

In the case of `Oc1c(Cl)c(Cl)c(O)c(Cl)c1Cl`, the T/C by setting is: (endpoint: mean survival time, dose: 6.25 mg/kg/injection, schedule: Q01DX001 (ip), vehicle: saline with Tween-80) 98 % of control; (endpoint: mean survival time, dose: 12.5 mg/kg/injection, schedule: Q01DX001 (ip), vehicle: saline with Tween-80) 95 % of control; (endpoint: mean survival time, dose: 25.0 mg/kg/injection, schedule: Q01DX001 (ip), vehicle: saline with Tween-80) 95 % of control.

Take `CC1=NN(c2ccccc2)C(=O)C1CC1C(=O)N(c2ccccc2)N=C1C` (stereo not given): the T/C is, setting by setting: under setting [10], 101 % of control; under setting [1], 96 % of control; under setting [11], 107 % of control; under setting [2], 92 % of control; (endpoint: mean survival time, dose: 400.0 mg/kg/injection, schedule: Q01DX009 (ip), vehicle: saline with Tween-80) 101 % of control; under setting [3], 88 % of control.

As to `COc1cc(OC)c(NC(=O)Nc2ccc(C(=O)O)cc2)cc1Cl`, the T/C by setting is: (endpoint: mean survival time, dose: 50.0 mg/kg/injection, schedule: Q01DX009 (ip), vehicle: saline with Tween-80) 89 % of control; under setting [10], 100 % of control; under setting [11], 96 % of control.

Consider `Cc1ccc(Cl)cc1NC(=O)OCC(C)C`, for which the T/C by setting is: under setting [4], 90 % of control; under setting [5], 93 % of control; under setting [6], 90 % of control.

`OCCNC(=S)SCc1ccccc1`: the T/C is, setting by setting: under setting [1], 94 % of control; under setting [2], 100 % of control; under setting [3], 98 % of control.

As to `O=C(O)CCOc1cc(F)c(F)cc1F`, the T/C was 101 % of control under setting [4], 90 % of control under setting [5] and 97 % of control under setting [6].

On to `O=C(CC(O)(C(F)(F)F)C(F)(F)F)C(=O)c1ccc([N+](=O)[O-])cc1`, for which the T/C by setting is: under setting [10], 105 % of control; under setting [11], 94 % of control.

As to `O=C(NCCNC(c1ccccc1)C(NCCNC(=O)c1ccccc1)c1ccccc1)c1ccccc1` (stereo not given), the T/C reads like this: under setting [7], 92 % of control; under setting [8], 96 % of control; under setting [9], 92 % of control.

`Cc1cccc(N=NN(C)C)c1`: the T/C was 113 % of control (endpoint: mean survival time, dose: 19.0 mg/kg/injection, schedule: Q01DX009 (ip), vehicle: Klucel (hydroxypropylcellulose) (HPC)); 119 % of control (endpoint: mean survival time, dose: 29.0 mg/kg/injection, schedule: Q01DX009 (ip), vehicle: Klucel (hydroxypropylcellulose) (HPC)); 123 % of control (endpoint: mean survival time, dose: 44.0 mg/kg/injection, schedule: Q01DX009 (ip), vehicle: Klucel (hydroxypropylcellulose) (HPC)); 114 % of control (endpoint: mean survival time, dose: 66.0 mg/kg/injection, schedule: Q01DX009 (ip), vehicle: Klucel (hydroxypropylcellulose) (HPC)); 120 % of control (endpoint: mean survival time, dose: 75.0 mg/kg/injection, schedule: Q01DX001 (ip), vehicle: saline).
